Experimental data: ChEMBL document CHEMBL3885861, “Open TG-GATES”

Species: Rattus norvegicus
Assay: Open TG-GATES - Regimen: Single
Type: toxicity, organism-based, Sprague-Dawley
Design: regimen Single, gender Male, age 6 weeks
Settings: in vivo, po, 300 mg/kg, route gavage, dose level High; for APTT / Bas / Eos / Fbg / Hb / Ht / Lym / MCH / MCHC / MCV / Mono / Neu / PT / Plat / RBC / Ret / WBC: tissue Blood; for KIDNEY_L / KIDNEY_R / KIDNEY_TOTAL: tissue Kidney; for LIVER: tissue Liver; for A/G / ALP / ALT / AST / BUN / CRE / Ca / Cl / DBIL / GLC / IP / K / LDH / Na / PL / RALB / TBIL / TC / TG / TP / gamma-GTP: tissue Plasma

## Nc1ccc(Cc2ccc(N)cc2)cc1
3 h
  TERMINAL_BW: 208.2 g
  APTT: 15.8 s
  Bas: 0%
  Eos: 0.8%
  Fbg: 257.6 mg/dL
  Hb: 13.2 g/dL
  Ht: 38.1%
  Lym: 67.2%
  MCH: 22 pg
  MCHC: 34.5%
  MCV: 63.6 fL
  Mono: 6%
  Neu: 25.6%
  PT: 12.1 s
  Plat: 142.6 x10_4/uL
  RBC: 600 x10_4/ul
  Ret: 8.7%
  WBC: 64.7 x10_2/uL
  KIDNEY_L: 0.9 g
  KIDNEY_R: 0.9 g
  KIDNEY_TOTAL: 1.8 g
  LIVER: 9 g
  A/G: 0.8
  ALP: 1363.8 IU/L
  ALT: 64 IU/L
  AST: 137.4 IU/L
  BUN: 10.6 mg/dL
  CRE: 0.2 mg/dL
  Ca: 10.5 mg/dL
  Cl: 102 meq/L
  DBIL: 0.094 mg/dL
  GLC: 183.4 mg/dL
  IP: 9.4 mg/dL
  K: 4 meq/L
  LDH: 175.4 IU/L
  Na: 139.8 meq/L
  PL: 170.8 mg/dL
  RALB: 2.5 g/dL
  TBIL: 0.2 mg/dL
  TC: 81.4 mg/dL
  TG: 79 mg/dL
  TP: 5.4 g/dL
  gamma-GTP: 2.6 IU/L
6 h
  TERMINAL_BW: 207.7 g
  APTT: 15.1 s
  Bas: 0%
  Eos: 0.6%
  Fbg: 257.4 mg/dL
  Hb: 13.3 g/dL
  Ht: 38.2%
  Lym: 60.6%
  MCH: 21 pg
  MCHC: 34.8%
  MCV: 60.2 fL
  Mono: 3.4%
  Neu: 34.6%
  PT: 11.9 s
  Plat: 133.9 x10_4/uL
  RBC: 634.6 x10_4/ul
  Ret: 7.3%
  WBC: 78.7 x10_2/uL
  KIDNEY_L: 0.9 g
  KIDNEY_R: 0.9 g
  KIDNEY_TOTAL: 1.9 g
  LIVER: 8.9 g
  A/G: 0.8
  ALP: 1513.4 IU/L
  ALT: 67 IU/L
  AST: 168.6 IU/L
  BUN: 11.8 mg/dL
  CRE: 0.2 mg/dL
  Ca: 10.2 mg/dL
  Cl: 100.8 meq/L
  DBIL: 0.4 mg/dL
  GLC: 172.6 mg/dL
  IP: 9.1 mg/dL
  K: 4.2 meq/L
  LDH: 196.8 IU/L
  Na: 140.8 meq/L
  PL: 152.8 mg/dL
  RALB: 2.3 g/dL
  TBIL: 0.6 mg/dL
  TC: 79.8 mg/dL
  TG: 42.6 mg/dL
  TP: 5.1 g/dL
  gamma-GTP: 5 IU/L
9 h
  TERMINAL_BW: 208 g
  APTT: 13.8 s
  Bas: 0%
  Eos: 0.4%
  Fbg: 257 mg/dL
  Hb: 12.6 g/dL
  Ht: 35.8%
  Lym: 52.2%
  MCH: 21.1 pg
  MCHC: 35.1%
  MCV: 60.1 fL
  Mono: 3.6%
  Neu: 42.6%
  PT: 11.9 s
  Plat: 139.7 x10_4/uL
  RBC: 595.6 x10_4/ul
  Ret: 7.8%
  WBC: 85.3 x10_2/uL
  KIDNEY_L: 0.9 g
  KIDNEY_R: 0.9 g
  KIDNEY_TOTAL: 1.9 g
  LIVER: 8.6 g
  A/G: 0.8
  ALP: 1671 IU/L
  ALT: 132.8 IU/L
  AST: 365.6 IU/L
  BUN: 11.8 mg/dL
  CRE: 0.2 mg/dL
  Ca: 10.3 mg/dL
  Cl: 101.6 meq/L
  DBIL: 0.7 mg/dL
  GLC: 176.2 mg/dL
  IP: 9.2 mg/dL
  K: 4.3 meq/L
  LDH: 351 IU/L
  Na: 142 meq/L
  PL: 173 mg/dL
  RALB: 2.3 g/dL
  TBIL: 1 mg/dL
  TC: 85 mg/dL
  TG: 45.2 mg/dL
  TP: 5.1 g/dL
  gamma-GTP: 7.4 IU/L
24 h
  TERMINAL_BW: 197.2 g
  APTT: 16.2 s
  Bas: 0%
  Eos: 1%
  Fbg: 321.4 mg/dL
  Hb: 12 g/dL
  Ht: 33.2%
  Lym: 52.8%
  MCH: 21.6 pg
  MCHC: 36%
  MCV: 59.8 fL
  Mono: 6.2%
  Neu: 39%
  PT: 11.9 s
  Plat: 148.1 x10_4/uL
  RBC: 554.4 x10_4/ul
  Ret: 6%
  WBC: 157.9 x10_2/uL
  KIDNEY_L: 0.9 g
  KIDNEY_R: 0.9 g
  KIDNEY_TOTAL: 1.8 g
  LIVER: 7.5 g
  A/G: 0.8
  ALP: 3659.6 IU/L
  ALT: 566.8 IU/L
  AST: 1154.8 IU/L
  BUN: 12 mg/dL
  CRE: 0.2 mg/dL
  Ca: 11 mg/dL
  Cl: 102.6 meq/L
  DBIL: 2.2 mg/dL
  GLC: 145.6 mg/dL
  IP: 8.7 mg/dL
  K: 4 meq/L
  LDH: 788.8 IU/L
  Na: 144.2 meq/L
  PL: 346.4 mg/dL
  RALB: 2.4 g/dL
  TBIL: 3.2 mg/dL
  TC: 145.2 mg/dL
  TG: 133.6 mg/dL
  TP: 5.6 g/dL
  gamma-GTP: 8.4 IU/L
